Type in all cases: biochemical
One test addresses T1, HDAC6 enzyme (Homo sapiens, UniProt Q9UBN7).
T1 construct: transducing full length HDAC1 and HDAC6 genes into Sf-9 insect cells; GST; purchased SignalChem; host or cells: Sf-9 insect cells
T1 sequence (Q9UBN7 1-1215): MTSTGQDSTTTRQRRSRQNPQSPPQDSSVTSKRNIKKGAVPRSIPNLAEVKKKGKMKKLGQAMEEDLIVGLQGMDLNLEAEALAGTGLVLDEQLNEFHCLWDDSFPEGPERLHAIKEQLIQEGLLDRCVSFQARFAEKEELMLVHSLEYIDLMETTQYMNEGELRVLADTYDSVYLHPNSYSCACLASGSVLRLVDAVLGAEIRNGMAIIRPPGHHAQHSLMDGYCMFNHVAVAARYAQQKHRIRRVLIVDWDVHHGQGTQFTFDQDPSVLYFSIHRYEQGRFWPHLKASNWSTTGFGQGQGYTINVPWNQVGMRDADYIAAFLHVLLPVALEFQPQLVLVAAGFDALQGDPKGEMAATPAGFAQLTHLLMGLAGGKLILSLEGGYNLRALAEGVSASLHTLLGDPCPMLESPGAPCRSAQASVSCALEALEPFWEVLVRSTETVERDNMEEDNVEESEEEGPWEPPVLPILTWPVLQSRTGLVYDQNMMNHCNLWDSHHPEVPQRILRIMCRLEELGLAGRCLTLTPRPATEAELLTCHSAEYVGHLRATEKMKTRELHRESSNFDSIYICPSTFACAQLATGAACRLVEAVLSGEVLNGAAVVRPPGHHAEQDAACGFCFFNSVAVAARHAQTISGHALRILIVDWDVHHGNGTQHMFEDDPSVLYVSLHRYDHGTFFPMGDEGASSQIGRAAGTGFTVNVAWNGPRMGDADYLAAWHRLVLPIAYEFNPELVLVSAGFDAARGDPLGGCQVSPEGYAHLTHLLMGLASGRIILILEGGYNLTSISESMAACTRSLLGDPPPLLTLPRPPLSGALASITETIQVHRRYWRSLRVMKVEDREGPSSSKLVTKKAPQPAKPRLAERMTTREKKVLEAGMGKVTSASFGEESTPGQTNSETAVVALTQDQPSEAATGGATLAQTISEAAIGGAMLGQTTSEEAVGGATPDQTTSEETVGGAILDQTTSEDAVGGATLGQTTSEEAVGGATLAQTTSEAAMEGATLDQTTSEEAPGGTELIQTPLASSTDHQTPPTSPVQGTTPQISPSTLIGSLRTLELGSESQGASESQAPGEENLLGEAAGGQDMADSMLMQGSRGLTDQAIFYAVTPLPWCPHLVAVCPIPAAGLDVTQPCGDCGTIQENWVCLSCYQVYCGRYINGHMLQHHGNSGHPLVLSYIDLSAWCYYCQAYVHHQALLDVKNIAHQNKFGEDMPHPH
Description: HDAC1/6 Enzyme Inhibitory Assay (HDAC-Glo I/II Assay kit), HDAC6. The conditions noted are these: 1 μM test compound, wells without enzyme = 100% inhibition; for inhibition at 1 µM: read-out: HDAC6 inhibitory rate (%) (1 μM). The procedure: (§1) HDAC1/6 Enzyme Inhibitory Assay
(§2) HDAC1 enzyme and HDAC6 enzyme each prepared by transducing full length HDAC1 and HDAC6 genes into Sf-9 insect cells and purifying by GST affinity column were purchased from SignalChem. Using these enzymes, HDAC1 and/or HDAC6 enzyme inhibitory activities of the compound of the present invention were evaluated. Enzymes were used after preserved at −70° C. HDAC1 or HDAC6 enzyme inhibitory activity of the compound of the present invention was measured using HDAC-Glo™ I/II Assay kit (Promega) according to the following experimental method. The test compound diluted with assay buffer (24 mM Tris-HCl (pH 7.5), 1 mM MgCl2, 0.35 mM KCl, 135 mM NaCl, 0.6 mM Glutathione, 0.01% Tween-20) was added to a 384-well plate by each 2 μL. Then, HDAC1 or HDAC6 enzyme solution diluted with assay buffer was added thereto by each 4 μL, and the plate was incubated at room temperature for 60 min. After incubated, HDAC substrate-Developer solution prepared according to Promega protocol attached to the assay kit was added to the 384-well plate by each 2 μL, and the enzyme reaction was started. After reacting at room temperature for 20 min, luminescence level was measured using plate reader Envision (PerkinElmer). The inhibitory activity of each compound was calculated as a relative activity value when luminescence level in wells without enzyme is considered as 100% inhibition.

The target in another test is T2, HDAC1 enzyme (Homo sapiens, UniProt Q13547).
T2 construct: transducing full length HDAC1 and HDAC6 genes into Sf-9 insect cells; GST; purchased SignalChem; host or cells: Sf-9 insect cells
In words: HDAC1/6 Enzyme Inhibitory Assay (HDAC-Glo I/II Assay kit), HDAC1. The following applies: 1 μM test compound, wells without enzyme = 100% inhibition; for inhibition at 1 µM: read-out: HDAC1 inhibitory rate (%) (1 μM). The procedure:
as §1, §2

A further test has as its target T3, HDAC9 enzyme (Homo sapiens, UniProt Q9UKV0).
T3 construct: transducing full length HDAC9 gene into Sf-9 insect cells; made in house; host or cells: Sf-9 insect cells
Description: HDAC9 Enzyme Inhibitory Assay (HDAC-Glo class IIa). The conditions noted are these: 1 μM test compound, wells without enzyme = 100% inhibition; for inhibition at 1 µM: read-out: HDAC9 inhibitory rate (%) (1 μM). The procedure: HDAC9 Enzyme Inhibitory Assay
Enzyme was prepared by transducing full length HDAC9 gene into Sf-9 insect cells and purifying by Ni-NTA affinity column, and HDAC9 enzyme inhibitory activity was evaluated. Enzymes were used after preserved at −70° C. HDAC9 enzyme inhibitory activity of the test compound was measured using HDAC-Glo class IIa (Promega) according to the following experimental method. The test compound diluted with assay buffer (24 mM Tris-HCl (pH 7.5), 1 mM MgCl2, 0.35 mM KCl, 135 mM NaCl, 0.6 mM Glutathione, 0.01% Tween-20) was added to a 384-well plate by each 2 μL. Then, HDAC9 enzyme solution diluted with assay buffer was added thereto by each 2 μL, and the plate was incubated at room temperature for 60 min. After incubated, HDAC substrate-Developer solution prepared according to Promega protocol was added to the 384-well plate by each 4 μL, and the enzyme reaction was started. After reacting at room temperature for 20 min, luminescence level was measured using plate reader Envision (PerkinElmer). The inhibitory activity of each compound was calculated as a relative activity value when luminescence level in wells without enzyme is considered as 100% inhibition.

The record followed here is patent US10308643B2, “Heterocyclic compound” (Takeda Pharmaceutical Company Limited, priority 2015, dated 2019).

T3 sequence (Q9UKV0 whole entry, species assumed): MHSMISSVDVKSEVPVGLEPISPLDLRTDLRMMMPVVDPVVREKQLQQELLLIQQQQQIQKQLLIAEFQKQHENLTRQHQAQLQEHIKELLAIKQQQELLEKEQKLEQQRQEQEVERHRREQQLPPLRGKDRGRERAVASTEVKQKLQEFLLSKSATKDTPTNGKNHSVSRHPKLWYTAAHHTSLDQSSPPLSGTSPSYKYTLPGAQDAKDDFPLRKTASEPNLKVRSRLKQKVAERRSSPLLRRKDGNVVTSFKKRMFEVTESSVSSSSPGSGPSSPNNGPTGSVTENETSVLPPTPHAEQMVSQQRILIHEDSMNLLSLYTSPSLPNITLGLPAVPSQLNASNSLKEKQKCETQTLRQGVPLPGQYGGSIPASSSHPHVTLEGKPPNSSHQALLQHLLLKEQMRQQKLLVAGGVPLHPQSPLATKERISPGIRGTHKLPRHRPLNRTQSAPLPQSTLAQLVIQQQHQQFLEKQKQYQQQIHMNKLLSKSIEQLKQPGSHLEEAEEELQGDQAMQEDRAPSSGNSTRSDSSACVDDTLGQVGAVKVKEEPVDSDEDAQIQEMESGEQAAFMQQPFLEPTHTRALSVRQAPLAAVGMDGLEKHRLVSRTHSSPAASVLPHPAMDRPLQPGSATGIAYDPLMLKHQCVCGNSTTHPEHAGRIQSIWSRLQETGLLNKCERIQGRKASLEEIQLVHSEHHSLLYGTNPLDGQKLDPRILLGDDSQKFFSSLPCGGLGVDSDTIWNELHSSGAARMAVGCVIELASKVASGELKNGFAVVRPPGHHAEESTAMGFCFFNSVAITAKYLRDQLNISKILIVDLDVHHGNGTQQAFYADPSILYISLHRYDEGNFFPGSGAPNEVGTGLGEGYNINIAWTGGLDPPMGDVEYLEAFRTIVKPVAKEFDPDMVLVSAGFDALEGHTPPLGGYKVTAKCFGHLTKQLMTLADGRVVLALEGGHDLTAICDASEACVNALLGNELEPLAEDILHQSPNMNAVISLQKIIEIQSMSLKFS
T2 sequence (Q13547 whole entry): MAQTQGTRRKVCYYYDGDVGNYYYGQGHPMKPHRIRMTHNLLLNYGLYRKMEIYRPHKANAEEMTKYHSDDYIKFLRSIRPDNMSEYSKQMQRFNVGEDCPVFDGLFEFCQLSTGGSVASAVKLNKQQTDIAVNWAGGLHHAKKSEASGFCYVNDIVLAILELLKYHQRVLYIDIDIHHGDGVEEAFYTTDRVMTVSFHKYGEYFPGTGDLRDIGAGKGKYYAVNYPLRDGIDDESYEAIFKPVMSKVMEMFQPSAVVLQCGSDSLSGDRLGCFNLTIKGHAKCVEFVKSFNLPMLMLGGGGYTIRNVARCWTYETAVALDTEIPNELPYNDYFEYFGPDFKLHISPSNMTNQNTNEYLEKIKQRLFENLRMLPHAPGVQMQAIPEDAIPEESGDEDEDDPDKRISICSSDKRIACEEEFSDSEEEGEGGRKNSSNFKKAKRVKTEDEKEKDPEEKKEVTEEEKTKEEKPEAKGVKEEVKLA

For the compound `CC(C)(C)OC(=O)N1C[C@@H](N2Cc3ccc(-c4noc(C(F)(F)F)n4)cc3C2=O)[C@H](c2ccccc2)C1` (relative stereo) [Example 2, tert-butyl trans-3-(1-oxo-6-(5-(trifluoromethyl)-1,2,4-oxadiazol-3-yl)-1,3-dihydro-2H-isoindol-2-yl)-4-phenylpyrrolidine-1-carboxylate], the inhibition at 1 µM was 98% on HDAC6 enzyme, 33% at HDAC1 enzyme and 90% on HDAC9 enzyme.
For `O=C1c2cc(-c3noc(C(F)(F)F)n3)ccc2CN1[C@@H]1CNC[C@H]1c1ccccc1` (relative stereo) [Example 3, trans-2-(4-phenylpyrrolidin-3-yl)-6-(5-(trifluoromethyl)-1,2,4-oxadiazol-3-yl)isoindolin-1-one] the same measures were 96%, 87% and 98%.
Consider `CC(=O)N1C[C@@H](N2Cc3ccc(-c4noc(C(F)(F)F)n4)cc3C2=O)[C@H](c2ccccc2)C1` (relative stereo) [Example 4, trans-2-(1-acetyl-4-phenylpyrrolidin-3-yl)-6-(5-(trifluoromethyl)-1,2,4-oxadiazol-3-yl)isoindolin-1-one], for which the values for the inhibition at 1 µM on HDAC6 enzyme, at HDAC1 enzyme and on HDAC9 enzyme were 99%, 69% and 96%, respectively.
As to `O=C1c2cc(-c3noc(C(F)(F)F)n3)ccc2CN1[C@@H]1CCOC[C@H]1c1ccccc1` (relative stereo) [Example 5, trans-2-(3-phenyltetrahydro-2H-pyran-4-yl)-6-(5-(trifluoromethyl)-1,2,4-oxadiazol-3-yl)isoindolin-1-one], the “HDAC6 inhibitory rate (%) (1 μM)” value at HDAC6 enzyme stood at 99%. For the same compound, the “HDAC1 inhibitory rate (%) (1 μM)” value on HDAC1 enzyme (1 µM) is listed as 78%. For the same compound, the “HDAC9 inhibitory rate (%) (1 μM)” value on HDAC9 enzyme (1 µM) stood at 95%.
As for `CC(C)(C)OC(=O)N[C@@H]1CCCC[C@H]1N1Cc2ccc(-c3noc(C(F)(F)F)n3)cc2C1=O` (relative stereo) [Example 6, tert-butyl trans-(2-(1-oxo-6-(5-(trifluoromethyl)-1,2,4-oxadiazol-3-yl)-1,3-dihydro-2H-isoindol-2-yl)cyclohexyl)carbamate], the inhibition at 1 µM at HDAC6 enzyme amounted to 95%; at HDAC1 enzyme it was 9%; on HDAC9 enzyme, 65%.
With `N[C@@H]1CCCC[C@H]1N1Cc2ccc(-c3noc(C(F)(F)F)n3)cc2C1=O` (relative stereo) [Example 7, trans-2-(2-aminocyclohexyl)-6-(5-(trifluoromethyl)-1,2,4-oxadiazol-3-yl)isoindolin-1-one], the inhibition at 1 µM at HDAC6 enzyme was 76%; at HDAC1 enzyme, 6%; at HDAC9 enzyme, 72%.
As for `CC(=O)N[C@@H]1CCCC[C@H]1N1Cc2ccc(-c3noc(C(F)(F)F)n3)cc2C1=O` (relative stereo) [Example 8, trans-N-(2-(1-oxo-6-(5-(trifluoromethyl)-1,2,4-oxadiazol-3-yl)-1,3-dihydro-2H-isoindol-2-yl)cyclohexyl)acetamide], the inhibition at 1 µM at HDAC6 enzyme was 98%; on HDAC1 enzyme it was 10%; on HDAC9 enzyme, 43%.
With `O=C(N[C@@H]1CCCC[C@H]1N1Cc2ccc(-c3noc(C(F)(F)F)n3)cc2C1=O)c1ccccc1` (relative stereo) [Example 9, trans-N-(2-(1-oxo-6-(5-(trifluoromethyl)-1,2,4-oxadiazol-3-yl)-1,3-dihydro-2H-isoindol-2-yl)cyclohexyl)benzamide], the inhibition at 1 µM on HDAC6 enzyme was found to be 97%; on HDAC1 enzyme, 54%; at HDAC9 enzyme, 89%.
For `O=C(c1ccccc1)N1C[C@@H](N2Cc3ccc(-c4noc(C(F)(F)F)n4)cc3C2=O)[C@H](c2ccccc2)C1` (relative stereo) [Example 10, trans-2-(1-benzoyl-4-phenylpyrrolidin-3-yl)-6-(5-(trifluoromethyl)-1,2,4-oxadiazol-3-yl)isoindolin-1-one] the same measures were 96%, 63% and 96%.
Regarding `O=C(C1CC1)N1C[C@@H](N2Cc3ccc(-c4noc(C(F)(F)F)n4)cc3C2=O)[C@H](c2ccccc2)C1` (relative stereo) [Example 11, trans-2-(1-(cyclopropylcarbonyl)-4-phenylpyrrolidin-3-yl)-6-(5-(trifluoromethyl)-1,2,4-oxadiazol-3-yl)isoindolin-1-one], the inhibition at 1 µM on HDAC6 enzyme amounted to 100%; on HDAC1 enzyme, 70%; on HDAC9 enzyme, 95%.
As to `O=C(N[C@@H]1CCCC[C@H]1N1Cc2ccc(-c3noc(C(F)(F)F)n3)cc2C1=O)C1CC1` (relative stereo) [Example 12, trans-N-(2-(1-oxo-6-(5-(trifluoromethyl)-1,2,4-oxadiazol-3-yl)-1,3-dihydro-2H-isoindol-2-yl)cyclohexyl)cyclopropanecarboxamide], the values for the inhibition at 1 µM on HDAC6 enzyme, at HDAC1 enzyme and on HDAC9 enzyme were 98%, 9% and 48%, respectively.
In the case of `O=C1CCCN1[C@@H]1CCCC[C@H]1N1Cc2ccc(-c3noc(C(F)(F)F)n3)cc2C1=O` (relative stereo) [Example 18, trans-2-(2-(2-oxopyrrolidin-1-yl)cyclohexyl)-6-(5-(trifluoromethyl)-1,2,4-oxadiazol-3-yl)isoindolin-1-one], the values for the inhibition at 1 µM on HDAC6 enzyme and on HDAC9 enzyme were 99% and 47%, respectively.
Turning to `O=C1c2ccc(-c3noc(C(F)(F)F)n3)cc2CN1c1ccccc1` [Example 1, 2-phenyl-5-(5-(trifluoromethyl)-1,2,4-oxadiazol-3-yl)isoindolin-1-one], the figures for the inhibition at 1 µM on HDAC6 enzyme and on HDAC9 enzyme were 8% and 55%, respectively.
In the case of `O=C1CCCN1[C@@H]1CCCC[C@H]1N1Cc2ccc(-c3noc(C(F)(F)F)n3)cc2C1=O` [Example 191, 2-((1R,2R)-2-(2-oxopyrrolidin-1-yl)cyclohexyl)-6-(5-(trifluoromethyl)-1,2,4-oxadiazol-3-yl)isoindolin-1-one], the inhibition at 1 µM at HDAC6 enzyme is 99%; on HDAC9 enzyme, 66%.
